Source: publication PMC9094701, “Multiple-Allele MHC Class II Epitope Engineering by a Molecular Dynamics-Based Evolution Protocol” (Frontiers in Immunology, 2022)

Experiments:
IFNγ-producing cells = test: IFNγ ELISpot of splenocytes from immunized mice; assay type: in vivo, C57BL/6 mice; details: for specific IFNγ-producing cells: C57BL/6 mice, two s.c. doses of 50 μg peptide with AddaVax, splenocytes 15 days after last dose, restimulated with the same peptide 18 h, ELISpot, mean; for Experimental rank: rank from the ex vivo experiments
[1] = target: MHC II (HLA) allele DRB1*01:01 (Homo sapiens, UniProt P01903+P01911, A100R/D57E/F55L/F60I/F76Y/I96L/L162R/M171V/P40L/Q125E/R42F/V115G/Y59C); test: ProImmune REVEAL MHC-peptide binding assay; details: score 0-100 by comparison with a control T-cell epitope, 0 and 24 hours, Figure 2E
[2] = tested on: MHC II alleles DRB1*01:01, DRB1*03:01, DRB1*04:01 and DRB1*15:01; test: Multiple-allele REVEAL score; assay type: binding, human; details: average of the scores of each allele; Figure 4A
Experimental: The 18 designed candidates and the additional controls were synthesized and analysed using the ProImmune REVEAL® MHC-peptide binding assay to determine their level of binding to the MHC II alleles DRB1*01:01, DRB1*03:01, DRB1*04:01 and DRB1*15:01. A multiple-allele score was measured to evaluate if the peptides improved toward multiple alleles ( Figure 4A ). Of the 18 peptides, the peptide […] could not be synthesized by the Prospector PEPscreen® technology. […] None of the peptides, including the controls, were able to trigger a signal for the allele DRB1*03:01 (see Figure 4A ). […]
A gold-standard method of rate binding experiments against the MHC II alleles was performed with the Proimmune REVEAL® binding assay. The method uses antibody-labelled peptides that emit a signal if native conformations of the complexes are detected. […]
For the single-allele binding optimization phase, 17 peptides selected were assayed together with the controls against the DRB1*01:01 allele. For the multiple-allele engineering phase, 18 P. vivax engineered epitopes were evaluated for the MHC II alleles DRB1*01:01, DRB1*03:01, DRB1*04:01 and DRB1*15:01. A multiple-allele score was calculated by averaging the scores of each allele, and by weighting each allele based on the their frequencies in the world population. […]

[3] = Influenza sequences and PADRE, Table S11

DYTVVYLKPLAGYDN
specific IFNγ-producing cells (IFNγ-producing cells): 54 SFU/10^6 cells
Experimental rank (IFNγ-producing cells; P. vivax sequences, Table S10): 5

AKFVAAWTLKAAA [reference compound]
Experimental rank (IFNγ-producing cells; [3]): 1

YSKYKKQNTLKAAT
REVEAL binding score, performance in words [1]: much superior to the original peptide sequence, and even to the PADRE control
specific IFNγ-producing cells (IFNγ-producing cells): 473 SFU/10^6 cells
Experimental rank (IFNγ-producing cells; [3]): 2

DYTVVYLKPLAGYDH
Multiple-allele REVEAL score, in words [2]: superior to the PADRE epitope
specific IFNγ-producing cells (IFNγ-producing cells): 127 SFU/10^6 cells
Experimental rank (IFNγ-producing cells; P. vivax sequences, Table S10): 4

YPKYVKQNTLKLAT [Influenza A virus peptide from the Hemagglutinin antigen, reference compound]
specific IFNγ-producing cells (IFNγ-producing cells): 463 SFU/10^6 cells
Experimental rank (IFNγ-producing cells; [3]): 3

VYDVVYLKPLAGCYK
specific IFNγ-producing cells (IFNγ-producing cells): 145 SFU/10^6 cells
Experimental rank (IFNγ-producing cells; P. vivax sequences, Table S10): 3

DYDVVYWKPLAGIYK
specific IFNγ-producing cells (IFNγ-producing cells): 228 SFU/10^6 cells
Experimental rank (IFNγ-producing cells; P. vivax sequences, Table S10): 2

DYDVVYLKPLAGMYK [reference compound]
specific IFNγ-producing cells (IFNγ-producing cells): 295 SFU/10^6 cells
Experimental rank (IFNγ-producing cells; P. vivax sequences, Table S10): 1
